{"source": "paper PMC9586926", "about": "“An efflux-susceptible antibiotic-adjuvant with systemic efficacy against mouse infections” (Scientific Reports, 2022)", "key": {"E. coli 25922": {"tested_on": "E. coli 25922", "assay": "Peritonitis-sepsis infection model in neutropenic mice", "assay_type": "in vivo", "conditions": "n = 10", "method": "(§1) The study is reported in accordance with ARRIVE guidelines.\nLipopeptides potential application in monotherapy and/or combination-therapies was explored with two infection models. In the peritonitis-sepsis model, mice (n = 10 per group) were first rendered neutropenic by two intraperitoneal (I.P.) injections of 0.3 ml containing 150 mg/kg and 100 mg/kg cyclophosphamide, administered 4 days and 1 day before the experiment, respectively. […] Mice survival was recorded for up to 7 days. In a variant assay, bacteria in PBS (1.4 × 10^6) were pre-treated with 10 µM lipopeptides for 15 min, similarly administered, and mice survival was recorded for up to 3 days. In the urinary-tract infection (UTI) model, mice (N = 5 mice per group) were anesthetized by a single I.P. injection (0.2 ml) containing a mixture of ketamine (100 mg/kg) and xylazine (5 mg/kg). Following application of an analgesic 2% lidocaine gel on their penises, mice were infected intra-urethraly using a 24-gauge catheter with 1.2 × 10^8 CFU/mouse (0.05 ml) and treated with the vehicle control (S.C., 1 h post-infection), 2 mg/kg rifampin (oral gavage, immediately before anesthesia), 7.5 mg/kg q.i.d. lipopeptides (S.C., starting 1 h post-infection), or both. Mice were sacrificed 24 h post-infection, their bladder and kidneys aseptically excised, suspended in 5 ml of sterile PBS, homogenized for 3 min using a bench-top homogenizer, serially tenfold diluted in saline, plated on LB agar, and incubated over-night at 37 °C for enumeration."}, "K. pneumoniae 1287": {"tested_on": "K. pneumoniae 1287", "assay": "Combination with antibiotics, modified checkerboard titration", "assay_type": "cell-based, Klebsiella pneumoniae", "method": "(§2) MIC was determined according to the broth microdilution method: antimicrobials were subjected to serial twofold dilutions in LB medium, and incubated with 5 × 10^5 CFU/ml of bacteria (final volume of 200 µl) for 18–24 h at 37 °C. Then, O.D.620 nm was measured (BioTek Instruments Synergy HT; Winooski, VT, USA), and the MIC was defined as the lowest antimicrobial concentration for which no increase in O.D.620 nm was evident, compared to the untreated control.\nLipopeptides and antibiotics combinations were assessed using a modified version of the checkerboard titration method: Antibiotics MIC was determined in LB medium containing sub-inhibitory lipopeptide concentrations. The sensitization factor (SF)[46] was then calculated by SF = MICA/MICC, where “MICA” is the antibiotic MIC in absence of an adjuvant and “MICC “ is the antibiotic MIC in presence of an adjuvant, for a specified adjuvant concentration. Combinations were classified as synergistic when antibiotics MIC were decreased by > 4 folds. Alternatively, the fractional inhibitory concentration index (FICI) was calculated by FICI = MICC1/MICA1 + MICC2/MICA2, where “MICC1” and “MICC2” respectively specify the antibiotic and the adjuvant MIC values upon their combination, whereas “MICA1” and “MICA2” respectively specify the antibiotic and the adjuvant MIC values when tested individually. Combinations were classified as synergistic for FICI < 0.5."}, "HEK-293FT": {"tested_on": "HEK-293FT", "assay": "Cytotoxicity, Alamar blue", "assay_type": "cell-based, human", "conditions": "24 h incubation, read-out: IC50 HEK-293FT (50% inhibition of cells respiration)", "method": "Cell lines used in this study included murine RAW 264.7 macrophages and human embryonic kidney HEK-293FT cells (ATCC, Biological Industries, Beit Haemek, Israel). Cells were grown in Dulbecco’s modified eagle medium (DMEM) containing […] glucose, L-glutamine, sodium bicarbonate and sodium pyruvate, supplemented with 10% fetal bovine serum and pen-strep, at 37 °C and 5% CO2.\nLipopeptides cytotoxicity was determined using fluorescent measurements of reduced resazurin. 2 × 10^4 cells were first cultured in 96-well plates over-night (final volume of 100 µl) at 37 °C and 5% CO2. Then, the medium was removed and cells were incubated for an additional 24 h with serial twofold dilutions of the lipopeptides in growth medium. Then, 10 µl of Alamar blue were added and plates were incubated for 3 h, after which fluorescence (excitation: 530 nm; emission: 590 nm) of the reduced resazurin was recorded (BioTek Instruments Synergy HT; Winooski, VT, USA)."}, "E. coli Ag100a (ΔacrAB)": {"tested_on": "E. coli Ag100a (ΔacrAB)", "assay": "MIC, broth microdilution, efflux deficient mutant", "assay_type": "cell-based, Escherichia coli", "conditions": "E. coli Ag100a (ΔacrAB) versus Ag100", "excerpt": "(§3) Bacteria used in this study consisted of standard American Type Culture Collection (ATCC; Biological Industries, Beit Haemek, Israel) strains, clinically isolated (CI; Sourasky Medical Center, Tel Aviv, Israel) strains, as well as isogenic mutant strains. Gram-negative bacteria included Acinetobacter baumannii ATCC 19606; Escherichia coli ATCC 25922, 35218, CFT073, CI 14384, 16327, and the isogenic pair Ag100 (wild-type) and its efflux deficient mutant Ag100a (ΔacrAB); Klebsiella pneumoniae CI 1287, 224; Pseudomonas aeruginosa ATCC 27853, CI 1278, 8634; Salmonella enterica serovar Typhimurium ATCC 14028 (wild-type) and its isogenic efflux deficient mutant ΔacrAB. Bacteria were grown in Luria–Bertani broth (LB; 5 g/l NaCl, 5 g/l yeast extract, 10 g/l tryptone; pH = 7.0) at 37 °C with shaking. Over-night cultures were diluted 10-folds into fresh growth-medium and incubated at 37 °C with shaking until reaching mid-logarithmic phase. Then, bacterial concentrations were adjusted using O.D.600 nm measurements, and bacteria were subjected to the experimental procedures listed herein.\nMIC was determined according to the broth microdilution method: antimicrobials were subjected to serial twofold dilutions in LB medium, and incubated with 5 × 10^5 CFU/ml of bacteria (final volume of 200 µl) for 18–24 h at 37 °C. […]"}, "A. baumannii": {"tested_on": "A. baumannii", "assay": "MIC, broth microdilution", "assay_type": "cell-based, Acinetobacter baumannii", "conditions": "broth microdilution in LB, 18–24 h, 37 °C; n = 1 strain", "excerpt": "as §3, §2"}, "[1]": {"assay": "Acute toxicity, maximal tolerated dose", "assay_type": "in vivo, mice", "conditions": "S.C., up to 40 mg/kg, seven-day monitoring", "method": "as §1\nThe maximal tolerated dose (MTD) was determined after sub-cutaneous (S.C.) administration of lipopeptides solutions (0.2 ml). Mice (N = 3 per group) were monitored for up to 7 days and their physiological condition was scored on a scale of 1 to 6, in which a score of 1 indicates no apparent signs of distress, and a score of 6 signifies severe distress necessitating the mice immediate euthanasia."}, "E. coli": {"tested_on": "E. coli", "assay": "MIC, broth microdilution", "assay_type": "cell-based, Escherichia coli", "conditions": "broth microdilution in LB, 18–24 h, 37 °C; n = 4 strains; published data in bold (not discernible)", "excerpt": "as §3, §2"}}, "note": "Where a SMILES comes first, the peptide text is derived from it. [ ]: non-standard residue; d: D form. The star is where a group is joined. 12Ado = NCCCCCCCCCCCC(=O)O; Decanoyl = CCCCCCCCCC(=O)*; Dab = NCC[C@H](N)C(=O)O"}
{"smiles": "CCCCCCCCCC(=O)N[C@@H](CCN)C(=O)N[C@@H](CCN)C(=O)NCCCCCCCCCCCC(=O)N[C@@H](CCN)C(N)=O", "note": "[C10BBc12B, decanoyl-bis.diaminobutyrate-aminododecanoyl-diaminobutyrate-amide] (Decanoyl-[Dab][Dab][12Ado][Dab]-NH2)", "values": [{"measurement": "survival rate, monotherapy", "setting": "E. coli 25922; 1.7 × 10^6 CFU/mouse, […] C10BBc12B S.C. 1 h post-infection or 20 mg/kg rifampin oral gavage", "value": 40, "unit": "%"}, {"measurement": "efficacy, monotherapy, higher inoculum", "setting": "E. coli 25922; 1.9 × 10^6 CFU/mouse, […] C10BBc12B S.C. or 20 mg/kg rifampin oral", "value": "virtually no efficacy"}, {"measurement": "mice mortality after infection with bacteria pre-treated with lipopeptide", "setting": "E. coli 25922; modified model, 1.4 × 10^6 CFU/mouse pre-treated 15 min with 10 µM in PBS, I.P., three days", "value": "delayed the onset of mice mortality and reduced the overall lethality rate"}, {"measurement": "sensitization efficiency to rifampin", "setting": "K. pneumoniae 1287", "value": "130,000 folds"}, {"measurement": "IC50", "setting": "HEK-293FT", "value": "> 50", "unit": "µM"}, {"measurement": "MIC change against efflux deficient mutant versus wild-type", "setting": "E. coli Ag100a (ΔacrAB)", "value": "eightfold reduction in MIC value"}, {"measurement": "MIC A. baumannii (n=1)", "setting": "A. baumannii", "value": "> 50", "unit": "µM"}, {"measurement": "signs of distress", "setting": "[1]", "value": "no apparent physiological signs of distress"}, {"measurement": "MIC E. coli (n=4)", "setting": "E. coli", "value": 50, "unit": "µM"}]}
